Experimental data reported in patent US9108983B2, “Pyrrole compounds, a process for their preparation and pharmaceutical compositions containing them” (LES LABORATOIRES SERVIER, priority 2013, dated 2015).
Counter-ions that a name gives are not always drawn.

What was measured:
[1] = tested on: RS4;11 leukaemia tumour line; assay: In vitro cytotoxicity (Microculture Tetrazolium Assay); format: cell-based; conditions: Homo sapiens, RS4-11, 48 h, RS4;11 cells, exposed for 48 hours, cell viability; read-out: IC50 (nM) MTT RS4;11
Description: The cytotoxicity studies were carried out on the RS4;11 leukaemia tumour line.
The cells are distributed onto microplates and exposed to the test compounds for 48 hours.
The cell viability is then quantified by a colorimetric assay, the Microculture Tetrazolium Assay (Cancer Res., 1987, 47, 939-942).

[2] = tested on: cleaved (activated) form of caspase 3 in RS4;11 leukaemia cell xenograft tumours; assay: Quantification of the cleaved form of caspase 3 in vivo (MSD ELISA); set-up: species or system mice (SCID strain); conditions: Mus musculus, cleaved caspase 3 MSD test, oral route, tumour removed after 2 hours, read-out: Activation factor ± SEM (versus control)
Description: The ability of the compounds of the invention to activate caspase 3 is evaluated in a xenograft model of RS4;11 leukaemia cells.
1×10^7 RS4;11 cells are grafted sub-cutaneously into immunosuppressed mice (SCID strain). 25 to 30 days after the graft, the animals are treated orally with the various compounds. After treatment, the tumour masses are recovered and lysed, and the cleaved (activated) form of caspase 3 is quantified in the tumour lysates.
The quantification is carried out using the “Meso Scale Discovery (MSD) ELISA platform” test, which specifically assays the cleaved form of caspase 3. It is expressed in the form of an activation factor corresponding to the ratio between the quantity of cleaved caspase 3 in the treated mice divided by the quantity of cleaved caspase 3 in the control mice.

Bcl-2 protein = Bcl-2 protein (histag-Bcl-2, UniProtKB P10415) (Homo sapiens (Human), UniProt P10415); assay: Inhibition of Bcl-2 by the fluorescence polarisation technique; format: binding; conditions: incubation for 2 hours, read-out: IC50 (nM) Bcl-2 FP
Procedure, shortened: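 In pH 7.4 buffer (Hepes 10 mM, NaCl 150 mM, Tween20 0.05%), test compounds at increasing concentrations competed with a fluorescein peptide (1.00×10^−8 M final) for histag-Bcl-2 (2.50×10^−8 M final). Readout was fluorescence polarisation after a 2 h incubation.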

Chain of Bcl-2 protein (P10415 whole entry): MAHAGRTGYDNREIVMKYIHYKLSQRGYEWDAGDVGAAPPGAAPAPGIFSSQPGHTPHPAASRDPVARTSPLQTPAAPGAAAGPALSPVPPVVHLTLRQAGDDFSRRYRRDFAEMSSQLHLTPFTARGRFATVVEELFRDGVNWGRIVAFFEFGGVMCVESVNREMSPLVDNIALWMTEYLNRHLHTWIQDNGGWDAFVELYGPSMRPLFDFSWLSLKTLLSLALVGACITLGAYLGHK

| SMILES | IC50 [1] [nM] | fold induction at 25 mg/kg [2] | IC50 (Bcl-2 protein) [nM] |
| --- | --- | --- | --- |
| Cc1c(C(=O)N(c2ccc(O)cc2)c2cnn(C)c2)cc(-c2cc(Cl)ccc2C(=O)N2Cc3ccccc3C[C@H]2CN2CCOCC2)n1C [Example 25, 5-(5-Chloro-2-{[(3S)-3-(morpholin-4-ylmethyl)-3,4-dihydroisoquinolin-2(1H)-yl]carbonyl}phenyl)-N-(4-hydroxyphenyl)-1,2-dimethyl-N-(1-methyl-1H-pyrazol-4-yl)-1H-pyrrole-3-carboxamide hydrochloride] | 33.3 | 45.7 ± 2 | 4 |
| Cc1c(C(=O)N(c2ccc(O)cc2)c2cnn(C)c2)cc(-c2cc3c(cc2C(=O)N2Cc4ccccc4C[C@H]2CN2CCOCC2)OCO3)n1C [Example 47, N-(4-Hydroxyphenyl)-1,2-dimethyl-N-(1-methyl-1H-pyrazol-4-yl)-5-(6-{[(3S)-3-(morpholin-4-ylmethyl)-3,4-dihydroisoquinolin-2(1H)-yl]carbonyl}-1,3-benzodioxol-5-yl)-1H-pyrrole-3-carboxamide hydrochloride] | 44.5 | 12.3 ± 2.4 | 5.9 |
| Cc1c(C(=O)N(c2ccc(O)cc2)c2cnc3c(ccn3C)c2)cc(-c2cc(Cl)ccc2C(=O)N2Cc3ccccc3C[C@H]2CN2CCOCC2)n1C [Example 71, 5-(5-Chloro-2-{[(3S)-3-(morpholin-4-ylmethyl)-3,4-dihydroisoquinolin-2(1H)-yl]carbonyl}phenyl)-N-(4-hydroxyphenyl)-1,2-dimethyl-N-(1-methyl-1H-pyrrolo[2,3-b]pyridin-5-yl)-1H-pyrrole-3-carboxamide hydrochloride] | 12.9 | 46.8 ± 16.1 | 6.1 |
| Cc1c(C(=O)N(c2ccc(O)cc2)c2cnc3c(c2)CCN3C)cc(-c2cc(Cl)ccc2C(=O)N2Cc3ccccc3C[C@H]2CN2CCOCC2)n1C [Example 388, 5-(5-Chloro-2-{[(3S)-3-(morpholin-4-ylmethyl)-3,4-dihydroisoquinolin-2(1H)-yl]carbonyl}phenyl)-N-(4-hydroxyphenyl)-1,2-dimethyl-N-(1-methyl-2,3-dihydro-1H-pyrrolo[2,3-b]pyridin-5-yl)-1H-pyrrole-3-carboxamide dihydrochloride] | 16.5 | 85.7 ± 3.7 | 3.6 |
| Cc1c(C(=O)N(c2ccc(O)cc2)c2cc(C#N)n(C)c2)cc(-c2cc(F)ccc2C(=O)N2Cc3ccccc3C[C@H]2CN2CCOCC2)n1C [Example 230, N-(5-Cyano-1-methyl-1H-pyrrol-3-yl)-5-(5-fluoro-2-{[(3S)-3-(morpholin-4-ylmethyl)-3,4-dihydroisoquinolin-2(1H)-yl]carbonyl}phenyl)-N-(4-hydroxyphenyl)-1,2-dimethyl-1H-pyrrole-3-carboxamide hydrochloride] | 18.3 | 42.2 ± 9.3 | 5.1 |
| Cc1c(C(=O)N(c2ccncc2)c2ccc(O)cc2)cc(-c2cc(Cl)ccc2C(=O)N2Cc3ccccc3C[C@H]2CN2CCOCC2)n1C [Example 74, 5-(5-Chloro-2-{[(3S)-3-(morpholin-4-ylmethyl)-3,4-dihydroisoquinolin-2(1H)-yl]carbonyl}phenyl)-N-(4-hydroxyphenyl)-1,2-dimethyl-N-(pyridin-4-yl)-1H-pyrrole-3-carboxamide hydrochloride] | 45.4 | – | 4 |
